Reference: patent US20140120184A1, “ARGON-BASED INHALABLE GASEOUS MEDICINAL PRODUCT FOR THE TREATMENT OF NEUROINTOXICATIONS” (Air Liquide Sante (International), priority 2003, published 2014)

Assays:
Format in all cases: in vivo, Sprague-Dawley rats
[1] = test system: sensitization to D-amphetamine; assay: Locomotor activity on D7 after D-amphetamine challenge (photoelectric cell actimetry) in the D-amphetamine sensitization protocol; settings: rats given D-amphetamine 1 mg/kg i.p. D1-D3, each injection followed by 3 h gas exposure, versus sensitized rats treated with air
Procedure: (§1) To do this, adult male Sprague-Dawley rats that weighed approximately 220 g when they arrived in the laboratory were used. Throughout the study, the animals were placed under standard animalhouse conditions, in groups of 8, so as to avoid the appearance of a stress reaction subsequent to isolation. They had water and food ad libitum.
(§2) For 3 consecutive days (from D1 to D3), 8 groups of animals (8 rats per group) were administered intraperitoneally (i.p.) either D-amphetamine (amph: 1 mg/ml/kg), or a saline solution (saline: 1 ml/kg) for the control animals. […]
(§3) The locomotor activity and the righting activity of the animals were evaluated at D6, after an i.p. injection of a saline solution (1 ml/kg) in order to determine the actual effects of the treatments administered with the various gases and mixtures of gas, and on D7 after an i.p. administration of D-amphetamine (1 mg/ml/kg) in order to evaluate the effects of the gases and mixtures of gas on sensitization to D-amphetamine. […]
(§4) The results obtained (see FIGS. 1 and 2) are expressed as the mean±the standard error of the mean. […]

[2] = test system: sensitization to D-amphetamine; assay: Stereotypic righting activity on D7 after D-amphetamine challenge (photoelectric cell actimetry) in the D-amphetamine sensitization protocol; settings: rats given D-amphetamine 1 mg/kg i.p. D1-D3, each injection followed by 3 h gas exposure, versus sensitized rats treated with air
Procedure: as §1, §2, §3, §4

[3] = Overall and qualitative evaluation of the gas-treated rats (neurotoxic effect, behaviour) during the sensitization protocol; settings: conclusion from locomotor and righting activity of the gas-exposed rats
Procedure: as §1, §2, §3

argon [argon at 75 vol %]
effect on the locomotor hyperactivity inherent to the development of sensitization to D-amphetamine [1]: total inhibitory effect | effect on the righting activity corresponding to the development of the sensitization to D-amphetamine [2]: inhibitory effect | neurotoxic effect [3]: without any neurotoxic effect being observed
